Data taken from article PMC5943959, “Potent and Selective Carboxylic Acid Inhibitors of Tumor-Associated Carbonic Anhydrases IX and XII” (Molecules : A Journal of Synthetic Chemistry and Natural …, 2017).
pKi: −log10 of the molar value. Read-outs that look alike come from different tables or passages of the source.

Experiments:
[1] = target: T1, hCA I (Homo sapiens, UniProt P00915); test: stopped-flow CO2 hydrase assay, hCA I; type: biochemical
T1 construct: made in house

[2] = target: T2, hCA II (Homo sapiens, UniProt P00918); test: stopped-flow CO2 hydrase assay, hCA II; type: biochemical
T2 construct: made in house

[3] = target: T3, hCA IV (Homo sapiens, UniProt P22748); test: stopped-flow CO2 hydrase assay, hCA IV; type: biochemical
T3 construct: made in house
T3 sequence (P22748 19-312): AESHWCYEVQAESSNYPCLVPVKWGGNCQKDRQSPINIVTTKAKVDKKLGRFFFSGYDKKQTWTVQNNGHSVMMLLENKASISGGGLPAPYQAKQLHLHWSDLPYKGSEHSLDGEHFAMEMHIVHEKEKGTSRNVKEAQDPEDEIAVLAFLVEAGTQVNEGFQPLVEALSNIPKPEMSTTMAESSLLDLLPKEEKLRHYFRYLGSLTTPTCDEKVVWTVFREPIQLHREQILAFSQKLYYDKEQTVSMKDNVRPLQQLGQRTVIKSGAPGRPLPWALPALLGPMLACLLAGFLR

[4] = target: T4, hCA VA (Homo sapiens, UniProt P35218); test: stopped-flow CO2 hydrase assay, hCA VA; type: biochemical
T4 construct: made in house
T4 sequence (P35218 39-305): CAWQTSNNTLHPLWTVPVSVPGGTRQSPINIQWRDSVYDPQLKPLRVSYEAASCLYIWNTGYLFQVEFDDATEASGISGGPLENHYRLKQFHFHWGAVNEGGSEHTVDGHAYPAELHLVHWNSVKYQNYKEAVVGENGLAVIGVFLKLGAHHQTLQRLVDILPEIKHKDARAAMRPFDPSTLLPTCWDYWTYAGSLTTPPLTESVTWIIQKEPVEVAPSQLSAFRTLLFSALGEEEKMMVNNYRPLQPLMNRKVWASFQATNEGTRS

[5] = target: T5, hCA VII (Homo sapiens, UniProt P43166); test: stopped-flow CO2 hydrase assay, hCA VII; type: biochemical
T5 construct: made in house
T5 sequence (P43166 whole entry): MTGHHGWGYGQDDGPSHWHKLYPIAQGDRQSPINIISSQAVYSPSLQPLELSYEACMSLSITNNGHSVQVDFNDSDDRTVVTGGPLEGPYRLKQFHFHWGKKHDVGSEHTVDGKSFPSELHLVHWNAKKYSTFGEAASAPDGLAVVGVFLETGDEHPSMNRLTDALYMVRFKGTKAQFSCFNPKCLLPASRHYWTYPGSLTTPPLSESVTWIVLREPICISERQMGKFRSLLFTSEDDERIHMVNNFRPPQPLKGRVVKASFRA

[6] = target: T6, hCA IX (Homo sapiens, UniProt Q16790); test: stopped-flow CO2 hydrase assay, hCA IX; type: biochemical; settings: for Selectivity Index hCA II/hCA IX: ratio of Ki values; for pKi: recombinant enzyme, errors ± 5–10%, 3 assays
T6 construct: made in house

[7] = target: T7, hCA XII (Homo sapiens, UniProt O43570); test: stopped-flow CO2 hydrase assay, hCA XII; type: biochemical; settings: for Selectivity Index hCA II/hCA XII: ratio of Ki values
T7 construct: made in house
T7 sequence (O43570 25-354): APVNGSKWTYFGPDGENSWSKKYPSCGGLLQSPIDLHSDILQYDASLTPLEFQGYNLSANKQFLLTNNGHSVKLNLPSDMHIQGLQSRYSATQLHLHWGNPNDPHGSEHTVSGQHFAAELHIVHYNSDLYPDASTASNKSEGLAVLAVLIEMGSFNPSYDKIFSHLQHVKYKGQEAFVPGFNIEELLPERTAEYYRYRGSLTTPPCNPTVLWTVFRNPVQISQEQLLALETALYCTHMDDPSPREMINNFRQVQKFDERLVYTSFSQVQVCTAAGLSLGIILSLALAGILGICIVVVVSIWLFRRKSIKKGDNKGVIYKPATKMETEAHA

[8] = target: T1, hCA I; design: method as in PMID 26121309; settings: values measured previously; cited from earlier work
[9] = target: T2, hCA II; design: method as in PMID 26121309; settings: values measured previously; cited from earlier work
[10] = target: T3, hCA IV; design: method as in PMID 26121309; settings: values measured previously; cited from earlier work
[11] = target: T4, hCA VA; design: method as in PMID 26121309; settings: values measured previously; cited from earlier work
[12] = target: T5, hCA VII; design: method as in PMID 26121309; settings: values measured previously; cited from earlier work
[13] = target: T6, hCA IX; design: method as in PMID 26121309; settings: values measured previously; cited from earlier work
[14] = target: T7, hCA XII; design: method as in PMID 26121309; settings: values measured previously; cited from earlier work
[15] = test system: chronic myeloid leukemia cells; design: method as in PMID 26121309; settings: cited from earlier work
[16] = recombinant enzyme, errors ± 5–10%, 3 assays, read-out: Ki hCA II
[17] = recombinant enzyme, errors ± 5–10%, 3 assays, read-out: Ki hCA IV
[18] = recombinant enzyme, errors ± 5–10%, 3 assays, read-out: Ki hCA VA
[19] = recombinant enzyme, errors ± 5–10%, 3 assays, read-out: Ki hCA VII
[20] = recombinant enzyme, errors ± 5–10%, 3 assays, read-out: Ki hCA XII
[21] = recombinant enzyme, errors ± 5–10%, 3 assays, read-out: Ki hCA I

T1 sequence (P00915 whole entry): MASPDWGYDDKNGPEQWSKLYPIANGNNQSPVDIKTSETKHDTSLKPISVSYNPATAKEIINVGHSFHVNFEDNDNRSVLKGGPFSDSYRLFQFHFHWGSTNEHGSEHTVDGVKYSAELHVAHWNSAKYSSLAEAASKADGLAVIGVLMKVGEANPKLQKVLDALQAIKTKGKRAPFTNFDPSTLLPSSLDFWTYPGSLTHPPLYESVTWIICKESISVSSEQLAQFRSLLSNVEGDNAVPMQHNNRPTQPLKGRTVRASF

Row | Structure (SMILES) | pKi [1] | pKi [2, 16] | pKi [3, 17] | pKi [4, 18] | pKi [5, 19] | Selectivity Index hCA II/hCA IX [6] | pKi [6] | Selectivity Index hCA II/hCA XII [7] | pKi [7, 20] | pKi [1, 21] | pKi [4] | also measured
1 | CC(C)(C)OC(=O)N1CCC(Nc2ccc(C(=O)O)cc2[N+](=O)[O-])CC1 [Compound 15] | < 4.30 | < 4.30 | 5.04 | 6.96 | < 4.30 | >2024.3 | 7.61 | >69.1 | 6.14 | – | – | –
2 | CC1=NN(c2ccc(C)cc2)C(=O)/C1=C/Nc1ccc(C(=O)O)cc1[N+](=O)[O-] [Compound 16] | < 4.30 | < 4.30 | 5.22 | 6.81 | 5.76 | >1661.1 | 7.52 | >142.0 | 6.45 | – | – | –
3 | O=C(O)c1ccc(Sc2ccccn2)c([N+](=O)[O-])c1 [Compound 10] | – | < 4.30 | < 4.30 | 6.85 | 6.18 | >3125 | 7.80 | >609.01 | 7.09 | 5.18 | – | –
4 | CS(=O)(=O)c1ccc(C(=O)O)cc1[N+](=O)[O-] [Compound 7] | < 4.30 | 5.14 | < 4.30 | – | < 4.30 | 264.9 | 7.56 | – | < 4.30 | – | 5.84 | hCA XII inhibition (in words) [7]: not active
5 | O=C(O)c1ccc(NCc2cccnc2)c([N+](=O)[O-])c1 [Compound 13] | – | < 4.30 | < 4.30 | 6.93 | < 4.30 | >471.7 | 6.97 | >79.0 | 6.20 | < 4.30 | – | hCA VII inhibition (in words) [5]: inactive
6 | O=C(O)c1ccc(Sc2nnnn2-c2ccccc2)c([N+](=O)[O-])c1 [Compound 17] | – | < 4.30 | 5.45 | 6.13 | < 4.30 | >2136.8 | 7.63 | >113.4 | 6.36 | < 4.30 | – | –
7 | O=C(O)c1ccc(N2CCc3ccccc32)c([N+](=O)[O-])c1 [Compound 3] | – | 5.14 | < 4.30 | 5.88 | 6.08 | 34.9 | 6.68 | – | < 4.30 | < 4.30 | – | –
8 | Cc1cc(C(=O)Nc2cc(C(=O)O)cc([N+](=O)[O-])c2)no1 [Compound 9] | < 4.30 | 5.07 | 5.08 | – | 6.12 | 51.5 | 6.78 | 11.3 | 6.12 | – | < 4.30 | –
9 | O=C(Cc1ccccc1)Nc1ccc(C(=O)O)cc1 [Compound 18] | – | 5.12 | < 4.30 | 6.58 | < 4.30 | 104.8 | 7.14 | 12.1 | 6.20 | 5.56 | – | –
10 | N#Cc1ccc(NCCc2ccccc2)c([N+](=O)[O-])c1 [Compound 19] | < 4.30 | < 4.30 | < 4.30 | 7.03 | < 4.30 | >632.1 | 7.10 | – | 6.19 | – | – | hCA VII inhibition (in words) [5]: inactive
11 | O=C(O)c1ccc(Sc2nnc(Sc3ccc(C(=O)O)cc3[N+](=O)[O-])s2)c([N+](=O)[O-])c1 [Compound 8] | 5.19 | – | – | – | – | – | 7.58 | – | – | – | < 4.30 | pKi [2]: 6.10; pKi [3]: 5.06; pKi [5]: < 4.30; hCA VII inhibition (in words) [5]: inactive; pKi [7]: 6.04
12 | O=C(O)c1cc([N+](=O)[O-])c(NCCc2ccccc2)c([N+](=O)[O-])c1 [GV2-20] | – | – | – | – | – | 1.59 | – | 7.01 | – | – | – | pKi [8]: 6.45; pKi [9]: 7.17; pKi [10]: 5.12; pKi [11]: 6.05; pKi [12]: 8.06; pKi [13]: 7.37; pKi [14]: 8.02; antiproliferative effects [15]: antiproliferative effects
13 | CC1OC(Nc2cc(C(=O)O)cc([N+](=O)[O-])c2)C(O)C(O)C1O (stereo not drawn) [Compound 2] | 5.25 | 5.14 | < 4.30 | – | < 4.30 | 68.3 | 6.97 | – | < 4.30 | – | 5.87 | –
14 | O=C(CSc1nnc(-c2ccncc2)s1)Nc1cc(C(=O)O)cc([N+](=O)[O-])c1 [Compound 14] | < 4.30 | < 4.30 | < 4.30 | 6.35 | < 4.30 | >2174.0 | 7.64 | >103.7 | 6.32 | – | – | –
15 | O=C(O)c1ccc(Sc2ccccc2C(=O)O)c([N+](=O)[O-])c1 [Compound 4] | 5.22 | 5.58 | < 4.30 | – | < 4.30 | 15.3 | 6.76 | – | < 4.30 | – | < 4.30 | –
16 | O=C(O)c1ccc(NCCc2ccc(Cl)cc2)c([N+](=O)[O-])c1 [Compound 5] | 5.09 | < 4.30 | < 4.30 | 5.93 | < 4.30 | >326.8 | 6.82 | >57.9 | 6.06 | – | – | hCA VII inhibition (in words) [5]: inactive
17 | CC(=O)Nc1cccc(Nc2c([N+](=O)[O-])cc(C(=O)O)cc2[N+](=O)[O-])c1 [Compound 12] | < 4.30 | < 4.30 | < 4.30 | 6.84 | < 4.30 | – | 7.09 | – | 7.04 | – | – | –
18 | Cc1ccc(S(=O)(=O)c2ccc(C(=O)O)cc2[N+](=O)[O-])cc1 [Compound 11] | < 4.30 | < 4.30 | < 4.30 | 6.45 | < 4.30 | >857.6 | 7.23 | >64.3 | 6.11 | – | – | –
19 | CCOC(=O)C1CCN(c2ccc(C(=O)O)cc2[N+](=O)[O-])CC1 [Compound 6] | 5.09 | 5.09 | < 4.30 | – | < 4.30 | 263.1 | 7.51 | – | < 4.30 | – | < 4.30 | hCA XII inhibition (in words) [7]: not active
20 | O=C(O)c1ccc(Sc2nnc(-c3cccc(Br)c3)o2)c([N+](=O)[O-])c1 [Compound 1] | – | 6.18 | 5.29 | 6.08 | 6.49 | 11.88 | 7.26 | 23.99 | 7.56 | 6.15 | – | Ki against hCA II, fold higher than that of AAZ ([2]; relative to AAZ): around 54 fold; Ki against hCA II, fold higher than that of GV2-20 ([2]; relative to GV2-20): around 10 fold; drop of inhibitory potency against hCA VII compared to GV2-20 ([5]; relative to GV2-20): around 37 fold
